Assay results as given in patent US9388147B2 (Receptos, Inc., priority 2009, dated 2016).
pEC50: −log10 of the molar value.

What follows are compounds tested against S1P1/EDG1 (Homo sapiens, UniProt P21453) (assay: S1P1 CRE-bla CHOK1 reporter assay, inhibition of Forskolin induced cAMP). Details: agonist activity range, S1P1 CRE-bla CHOK1, 2 μM Forskolin; read-out: S1P1 ACTIVITY.
Assay type: cell-based
Procedure, shortened: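 Read-out is a FRET β-lactamase substrate (2 h, room temperature) after 4 h, 37 °C compound treatment under 2 μM Forskolin in stable S1P1-transfected CRE-bla CHO-K1 cells. Ten-point curves; non-linear regression gives EC50 for inhibition of Forskolin-stimulated cAMP.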

Chain of S1P1/EDG1 (P21453 whole entry): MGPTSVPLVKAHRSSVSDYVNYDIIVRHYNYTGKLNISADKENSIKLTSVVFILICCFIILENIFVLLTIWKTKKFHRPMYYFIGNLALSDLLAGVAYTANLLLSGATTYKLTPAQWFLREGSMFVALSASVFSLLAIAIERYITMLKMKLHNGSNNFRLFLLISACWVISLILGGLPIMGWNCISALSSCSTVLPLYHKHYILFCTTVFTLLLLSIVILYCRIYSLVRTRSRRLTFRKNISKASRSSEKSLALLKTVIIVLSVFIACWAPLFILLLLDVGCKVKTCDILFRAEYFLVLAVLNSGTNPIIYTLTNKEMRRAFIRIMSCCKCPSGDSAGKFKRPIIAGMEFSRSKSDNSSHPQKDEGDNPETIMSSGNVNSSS

First: CC(C)Oc1ccc(-c2nc(-c3cccc4c3CCC4NS(C)(=O)=O)no2)cc1C#N (stereo in doubt) [Compound 70]
Second: CC(C)Oc1ccc(-c2nc(-c3cccc4c3CC[C@@H]4NS(C)(=O)=O)no2)cc1C#N [Compound 69, (S)-N-(4-(5-(3 cyano-4-isopropoxyphenyl)-1,2,4-oxadiazol-3-yl)-2,3-dihydro-1H-inden-1-yl)methanesulfonamide]
The pEC50 of the first is lower: 9.30 to 10.30 for the first, > 10.30 for the second. The second is the more potent here.

`CC(C)Oc1ccc(-c2nc(-c3cccc4c3CC[C@H]4NS(=O)(=O)CC(=O)N3CC(O)C3)no2)cc1C#N` [Compound 190] and `CC(C)Oc1ccc(-c2nc(-c3cccc4c3CC[C@@H]4NS(=O)(=O)CC(=O)N3CCC3)no2)cc1C#N` [Compound 200] cannot be ordered by pEC50: > 10.30 for the first, > 10.30 for the second.

Compared with `CC(C)Oc1ccc(-c2nc(-c3cccc4c3CC[C@@H]4NS(=O)(=O)CC(=O)N(C)C)no2)cc1C#N` [Compound 195, (S)-2 (N (4-(5-(3 cyano-4-isopropoxyphenyl)-1,2,4-oxadiazol-3-yl)-2,3-dihydro-1H-inden-1-yl)sulfamoyl)-N,N-dimethylacetamide], `CC(C)Oc1ccc(-c2nc(-c3cccc4c3CC[C@H]4NS(=O)(=O)CC(N)=O)no2)cc1C#N` [Compound 197] is higher in pEC50: 9.30 to 10.30 for the first, > 10.30 for the second.

First: CC(C)Oc1ccc(-c2nc(-c3cccc4c3CC[C@@H]4NC(=O)N3CCNCC3)no2)cc1C#N [Compound 214]
Second: CC(C)Oc1ccc(-c2nc(-c3cccc4c3CC[C@H]4NC(=O)N3CCNCC3)no2)cc1C#N [Compound 213]
The pEC50 of the first is higher: 9.30 to 10.30 for the first, 8.30 to 9.30 for the second.

First: CC(C)Oc1ccc(-c2nc(-c3cccc4c3CC[C@H]4N(CCO)S(C)(=O)=O)no2)cc1C#N [Compound 112, (R)-N-(4-(5-(3 cyano-4-isopropoxyphenyl)-1,2,4-oxadiazol-3-yl)-2,3-dihydro-1H-inden-1-yl)-N-(2-hydroxyethyl)methanesulfonamide]
Second: CC(C)Oc1ccc(-c2nc(-c3cccc4c3CC[C@@H]4NCCS(C)(=O)=O)no2)cc1C#N [Compound 126]
The pEC50 of the first is lower: 8.30 to 9.30 for the first, 9.30 to 10.30 for the second.

`CCOc1ccc(-c2nc(-c3cccc4c3CC[C@H]4O)no2)cc1OCC` [Compound 1] and `CC(C)Oc1ccc(-c2nc(-c3cccc4c3CC[C@@H]4O)no2)cc1C(F)(F)F` [Compound 8] fall in the same range of pEC50: 9.30 to 10.30 for the first, 9.30 to 10.30 for the second.

`CC(C)Oc1ccc(-c2nc(-c3cccc4c3CC[C@H]4NCC(=O)O)no2)cc1C#N` [Compound 61] and `CC(C)Oc1ccc(-c2nc(-c3cccc4c3CC[C@@H]4NCCCC(=O)O)no2)cc1C#N` [Compound 146] cannot be ordered by pEC50: > 10.30 for the first, > 10.30 for the second.

First: CC(C)N[C@H]1CCc2c(-c3noc(-c4ccc(OC(C)C)c(C#N)c4)n3)cccc21 [Compound 87]
Second: CC(=O)N[C@H]1CCc2c(-c3noc(-c4ccc(OC(C)C)c(C#N)c4)n3)cccc21 [Compound 139, (S)-N-(4-(5-(3 cyano-4-isopropoxyphenyl)-1,2,4-oxadiazol-3-yl)-2,3-dihydro-1H-inden-1-yl)acetamide]
The pEC50 of the first is lower: 8.30 to 9.30 for the first, 9.30 to 10.30 for the second. The second is the more potent here.

`CC(C)Oc1ccc(-c2nc(-c3cccc4c3CC[C@H]4NC(=O)N3CC[C@@H](O)C3)no2)cc1C#N` [Compound 230] and `CC(C)Oc1ccc(-c2nc(-c3cccc4c3CC[C@H]4NC(=O)N3CC[C@H](O)C3)no2)cc1C#N` [Compound 231] fall in the same range of pEC50: 9.30 to 10.30 for the first, 9.30 to 10.30 for the second.

`COC(=O)C1CN(C2CCc3c(-c4noc(-c5ccc(OC(C)C)c(C#N)c5)n4)cccc32)C1` (racemic) [Compound 36] and `CC(C)Oc1ccc(-c2nc(-c3cccc4c3CC[C@H]4N3CC(C(=O)N(C)C)C3)no2)cc1C#N` [Compound 204] fall in the same range of pEC50: 9.30 to 10.30 for the first, 9.30 to 10.30 for the second.

First: CC(C)Oc1ccc(-c2nc(-c3cccc4c3CC[C@@H]4NC(=O)CO)no2)cc1C#N [Compound 137]
Second: CC(C)Oc1ccc(-c2nc(-c3cccc4c3CC[C@H]4NC(=O)CN)no2)cc1C#N [Compound 66]
The pEC50 of the first is higher: > 10.30 for the first, 9.30 to 10.30 for the second. The first is the more potent here.

First: CC(C)Oc1ccc(-c2nc(-c3cccc4c3CC[C@H]4NS(=O)(=O)C3CC3)no2)cc1C#N [Compound 166]
Second: CC(C)Oc1ccc(-c2nc(-c3cccc4c3CC[C@@H]4NS(=O)(=O)CC(N)=O)no2)cc1C#N [Compound 196]
The pEC50 of the first is lower: 9.30 to 10.30 for the first, > 10.30 for the second.

`CC(C)Oc1ccc(-c2nc(-c3cccc4c3CCC4NS(=O)(=O)c3ccccc3)no2)cc1C#N` (stereo in doubt) [Compound 79] and `CC(C)Oc1ccc(-c2nc(-c3cccc4c3CC[C@H]4NS(=O)(=O)Cc3ccccc3)no2)cc1C#N` [Compound 81] fall in the same range of pEC50: 8.30 to 9.30 for the first, 8.30 to 9.30 for the second.

First: CC(C)Oc1ccc(-c2nc(-c3cccc4c3CC[C@H]4NC(=O)N3CCC(O)CC3)no2)cc1C#N [Compound 240]
Second: CC(C)Oc1ccc(-c2nc(-c3cccc4c3CC[C@@H]4NC(=O)N3CCC(CO)CC3)no2)cc1C#N [Compound 218]
The pEC50 of the first is lower: 8.30 to 9.30 for the first, 9.30 to 10.30 for the second.

Compared with `CC(C)Oc1ccc(-c2nc(-c3cccc4c3CC[C@H]4NCc3ccccc3)no2)cc1C#N` [Compound 156], `CC(C)Oc1ccc(-c2nc(-c3cccc4c3CC[C@H]4N[C@H](C)c3ccccc3)no2)cc1C#N` [Compound 251] is lower in pEC50: 8.30 to 9.30 for the first, < 8.30 for the second. The first is the more potent here.

`COC(=O)C1CCN(C(=O)N[C@@H]2CCc3c(-c4noc(-c5ccc(OC(C)C)c(C#N)c5)n4)cccc32)CC1` [Compound 236] and `COC(=O)C1CCN(C(=O)N[C@H]2CCc3c(-c4noc(-c5ccc(OC(C)C)c(C#N)c5)n4)cccc32)CC1` [Compound 237] fall in the same range of pEC50: 9.30 to 10.30 for the first, 9.30 to 10.30 for the second.

`CC(C)Oc1ccc(-c2nc(-c3cccc4c3CC[C@H]4NC(=O)N3CC[C@@H](N(C)C)C3)no2)cc1C#N` [Compound 242] and `CC(C)Oc1ccc(-c2nc(-c3cccc4c3CC[C@H]4NC(=O)N3CC[C@H](N(C)C)C3)no2)cc1C#N` [Compound 243] fall in the same range of pEC50: 8.30 to 9.30 for the first, 8.30 to 9.30 for the second.

`CC(C)Oc1ccc(-c2nc(-c3cccc4c3CC[C@@H]4NC(=O)N3CCC[C@@H](O)C3)no2)cc1C#N` [Compound 220] and `CC(C)Oc1ccc(-c2nc(-c3cccc4c3CC[C@H]4NCC(=O)N3CC[C@H](O)C3)no2)cc1C#N` [Compound 134] fall in the same range of pEC50: 9.30 to 10.30 for the first, 9.30 to 10.30 for the second.

First: CNCCS(=O)(=O)N[C@H]1CCc2c(-c3noc(-c4ccc(OC(C)C)c(C#N)c4)n3)cccc21 [Compound 74]
Second: CNCCS(=O)(=O)NC1CCc2c(-c3noc(-c4ccc(OC(C)C)c(C#N)c4)n3)cccc21 (stereo in doubt) [Compound 75]
The pEC50 of the first is higher: 9.30 to 10.30 for the first, 8.30 to 9.30 for the second. The first is the more potent here.

First: CC(C)Oc1ccc(-c2nc(-c3cccc4c3CC[C@@H]4NCC(=O)N(C)C)no2)cc1C(N)=O [Compound 121]
Second: CCOC(=O)CNC1CCc2c(-c3noc(-c4ccc(OC(C)C)c(C#N)c4)n3)cccc21 (racemic) [Compound 40]
The pEC50 of the first is lower: < 8.30 for the first, 9.30 to 10.30 for the second.

First: CC(C)Oc1ccc(-c2nc(-c3cccc4c3CC[C@H]4NCC(F)F)no2)cc1C#N [Compound 140]
Second: CCCN[C@H]1CCc2c(-c3noc(-c4ccc(OC(C)C)c(C#N)c4)n3)cccc21 [Compound 144]
The pEC50 of the first is lower: 8.30 to 9.30 for the first, 9.30 to 10.30 for the second. The second is the more potent here.

First: CC(C)Oc1ccc(-c2nc(-c3cccc4c3CC[C@H]4NS(=O)(=O)CCN3CC[C@@H](O)C3)no2)cc1C#N [Compound 171]
Second: CC(C)Oc1ccc(-c2nc(-c3cccc4c3CC[C@H]4NS(=O)(=O)CCN3CC[C@H](O)C3)no2)cc1C#N [Compound 172]
The pEC50 of the first is higher: 9.30 to 10.30 for the first, 8.30 to 9.30 for the second. The first is the more potent here.

First: CCOC(=O)N[C@@H]1CCc2c(-c3noc(-c4ccc(OC(C)C)c(C#N)c4)n3)cccc21 [Compound 151]
Second: CNC(=O)CS(=O)(=O)N[C@@H]1CCc2c(-c3noc(-c4ccc(OC(C)C)c(C#N)c4)n3)cccc21 [Compound 199]
The pEC50 of the first is lower: 8.30 to 9.30 for the first, > 10.30 for the second.

Compared with `CC(C)Oc1ccc(-c2nc(-c3cccc4c3CC[C@@H]4NS(=O)(=O)CCC(=O)O)no2)cc1C#N` [Compound 185], `CNS(=O)(=O)CCNC1CCc2c(-c3noc(-c4ccc(OC(C)C)c(C#N)c4)n3)cccc21` (racemic) [Compound 45, 2-((4-(5-(3-cyano-4-isopropoxyphenyl)-1,2,4-oxadiazol-3-yl)-2,3-dihydro-1H-inden-1-yl)amino)-N-methylethanesulfonamide] is lower in pEC50: > 10.30 for the first, 9.30 to 10.30 for the second.

First: CC(C)Oc1ccc(-c2nc(-c3cccc4c3CC[C@@H]4N3CC(C(=O)N4CCC4)C3)no2)cc1C#N [Compound 207]
Second: CC(C)Oc1ccc(-c2nc(-c3cccc4c3CCC4N3CCOCC3)no2)cc1C#N (racemic) [Compound 46]
The pEC50 of the first is higher: 9.30 to 10.30 for the first, 8.30 to 9.30 for the second. The first is the more potent here.

`CC(C)Oc1ccc(-c2nc(-c3cccc4c3CCC4NC3CCNCC3)no2)cc1C#N` (racemic) [Compound 19, 2-isopropoxy-5-(3-(1-(piperidin-4-ylamino)-2,3-dihydro-1H-inden-4-yl)-1,2,4-oxadiazol-5-yl)benzonitrile] and `CC(C)Oc1ccc(-c2nc(-c3cccc4c3CCC4NC3CCCCC3)no2)cc1C#N` (racemic) [Compound 22] cannot be ordered by pEC50: < 8.30 for the first, < 8.30 for the second.

First: CC(C)Oc1cc(C#N)cc(-c2nc(-c3cccc4c3CCC4N)no2)c1 (stereo in doubt) [Compound 97, (R)-3-(3-(1-amino-2,3-dihydro-1H-inden-4-yl)-1,2,4-oxadiazol-5-yl)-5-isopropoxy benzo-nitrile]
Second: Cc1c[nH]c(CN[C@H]2CCc3c(-c4noc(-c5ccc(OC(C)C)c(C#N)c5)n4)cccc32)n1 [Compound 159]
The pEC50 of the first is lower: < 8.30 for the first, 8.30 to 9.30 for the second.

First: CC(C)Oc1ccc(-c2nc(-c3cccc4c3CC[C@H]4NS(=O)(=O)CC(=O)N3CCOCC3)no2)cc1C#N [Compound 192]
Second: CC(C)Oc1ccc(-c2nc(-c3cccc4c3CC[C@H]4NC(=O)CN3CCCC3)no2)cc1C#N [Compound 68]
The pEC50 of the first is higher: > 10.30 for the first, 8.30 to 9.30 for the second.
